For 9 molecules, TGI results are on record in PubChem BioAssay (NCI).

Usually TGI stands for the concentration at which net growth stops.

Among the test systems are LOX IMVI melanoma; UACC-257 melanoma; MCF7 breast; M14 melanoma; SF-268 CNS; COLO 205 colon; MDA-MB-231 breast; RXF 393 renal; HS 578T breast; PC-3 prostate; SR leukemia; NCI-H522 lung; IGROV1 ovarian; SN12C renal; MALME-3M melanoma; OVCAR-3 ovarian.
Assay in all cases: DTP human tumour cell line panel, 48 h

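All cell lines were grown in 96-well plates and treated with compound for 48 hours. TGI: total growth inhibition.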 Where only a bound is given, the exact number is not on record here.

With `COc1cc(O)c2c(=O)cc(C3(O)C=CC(=O)C=C3)oc2c1`, the TGI with LOX IMVI melanoma is 0.464 µM; in the experiment with UACC-257 melanoma, 1.05 µM; in the experiment with MCF7 breast, 0.58 µM; with M14 melanoma it was 2.37 µM; in the experiment with SF-268 CNS it was 1.72 µM; with COLO 205 colon, 0.906 µM. For the same molecule, the TGI in the experiment on MDA-MB-231 breast is 0.789 µM; in the experiment with RXF 393 renal, 17.7 µM; with HS 578T breast it was 8.38 µM; with PC-3 prostate, 1.37 µM; in the experiment with SR leukemia, 0.126 µM; in the experiment with NCI-H522 lung, 0.113 µM. The molecule further gave a TGI in the experiment on IGROV1 ovarian of 0.0328 µM.

For the molecule `CCCCCCCN1C(=O)C(O)(c2ccc(C3(O)C(=O)N(CCCCCCC)c4ccccc43)s2)c2ccccc21` (configuration not stated), the TGI turned out to be 3.42 µM in the experiment with SN12C renal; 3.51 µM with LOX IMVI melanoma; 4.42 µM in the experiment on UACC-257 melanoma; 5.7 µM with MCF7 breast; 3.69 µM in the experiment on M14 melanoma; 3.97 µM with SF-268 CNS. Besides, the TGI came to 3.21 µM with COLO 205 colon; 4.12 µM with MDA-MB-231 breast; 5.31 µM in the experiment on HS 578T breast; 3.8 µM in the experiment on PC-3 prostate; 18.4 µM with SR leukemia; 4.28 µM with IGROV1 ovarian.

`Cc1ccc(S(=O)(=O)Oc2nc3ccccc3nc2N(S(=O)(=O)c2ccc(C)cc2)S(=O)(=O)c2ccc(C)cc2)cc1`: the TGI in the experiment with SN12C renal, in the experiment on LOX IMVI melanoma, with UACC-257 melanoma, in the experiment on MCF7 breast, with M14 melanoma and with SF-268 CNS was > 100 µM each time. Further, the TGI with COLO 205 colon, in the experiment with MDA-MB-231 breast, in the experiment on RXF 393 renal, in the experiment with MALME-3M melanoma, in the experiment with HS 578T breast and in the experiment on PC-3 prostate was > 100 µM throughout. For the same molecule, the TGI with NCI-H522 lung, in the experiment with IGROV1 ovarian and in the experiment with OVCAR-3 ovarian was > 100 µM throughout.

In the case of `COc1cc2c(cc1OC)C(N)CC2=O` (configuration not stated), the TGI in the experiment on SN12C renal, with LOX IMVI melanoma, with UACC-257 melanoma, in the experiment on MCF7 breast, in the experiment on M14 melanoma and in the experiment with SF-268 CNS was > 100 µM each time. Besides, the TGI in the experiment with COLO 205 colon, in the experiment on MDA-MB-231 breast, in the experiment with RXF 393 renal, in the experiment on HS 578T breast, in the experiment on PC-3 prostate and in the experiment with SR leukemia was > 100 µM throughout. The TGI in the experiment with NCI-H522 lung, in the experiment with IGROV1 ovarian and in the experiment on OVCAR-3 ovarian was > 100 µM in each case.

For the molecule `NC(N)=NCCCC(NC(=O)OCCCCCCn1ccc(N)nc1=O)C(=O)O` (configuration not stated), the TGI in the experiment with SN12C renal, in the experiment on LOX IMVI melanoma, with UACC-257 melanoma, with MCF7 breast, in the experiment on M14 melanoma and in the experiment on SF-268 CNS was > 100 µM throughout. Further, the TGI in the experiment with COLO 205 colon, in the experiment on MDA-MB-231 breast, in the experiment with RXF 393 renal, with HS 578T breast, with PC-3 prostate and in the experiment with SR leukemia was > 100 µM each time. Further, the total growth inhibition concentration (TGI) in the experiment on IGROV1 ovarian and with OVCAR-3 ovarian was > 100 µM each time.

Consider `COc1c(O)c2c(=O)cc(OC)c3c4c(OC)cc(=O)c5c(O)c(OC)c6c(c(c1C(C(C)=O)C6C(C)O)c23)c54` (configuration not stated), for which the TGI in the experiment on SN12C renal is 2.94 µM; in the experiment with LOX IMVI melanoma, 0.32 µM; in the experiment with UACC-257 melanoma, 1.39 µM; with MCF7 breast, 1.54 µM; with SF-268 CNS, 3.92 µM; in the experiment with MDA-MB-231 breast it was 1.88 µM. In addition, the TGI in the experiment with MALME-3M melanoma turned out to be 2.57 µM; in the experiment on HS 578T breast it was 1.81 µM; with PC-3 prostate it was 0.971 µM; in the experiment with SR leukemia, 1.93 µM; in the experiment with NCI-H522 lung it was 0.634 µM; with IGROV1 ovarian, 1 µM. In addition, the TGI with OVCAR-3 ovarian stood at 0.442 µM.

Regarding `C/C=C/C(=O)N1C(=O)OC[C@@H]1c1ccccc1`, the TGI amounted to 37.2 µM in the experiment with SN12C renal; 35 µM in the experiment with LOX IMVI melanoma; 39.9 µM in the experiment on UACC-257 melanoma; 31.5 µM in the experiment with MCF7 breast; 36.6 µM in the experiment on M14 melanoma; 44.1 µM in the experiment with SF-268 CNS. In addition, the TGI in the experiment on COLO 205 colon turned out to be 39.1 µM; in the experiment on MDA-MB-231 breast, 39.8 µM; in the experiment with RXF 393 renal it was 37.2 µM; in the experiment with MALME-3M melanoma, 39.7 µM; in the experiment with HS 578T breast, 76.2 µM; with PC-3 prostate it was 37.5 µM. Also, the TGI with NCI-H522 lung turned out to be 39.1 µM; with IGROV1 ovarian, 37.1 µM; in the experiment on OVCAR-3 ovarian, 33.7 µM.

As for `COC(=O)[C@@H]1C[C@@H]2c3ccccc3N(S(=O)(=O)c3ccccc3)[C@@H]2N1C(=O)OC`, the TGI in the experiment with SN12C renal, in the experiment with LOX IMVI melanoma, in the experiment with UACC-257 melanoma, with MCF7 breast, in the experiment on SF-268 CNS and in the experiment with COLO 205 colon was > 100 µM each time. The TGI in the experiment on MDA-MB-231 breast, with RXF 393 renal, with MALME-3M melanoma, in the experiment on HS 578T breast, with PC-3 prostate and with SR leukemia was > 100 µM in each case. In addition, the TGI with NCI-H522 lung, with IGROV1 ovarian and in the experiment on OVCAR-3 ovarian was > 100 µM in each case.

For the molecule `CC1OC(OC2C(O)COC(OC3C(C)OC(OC4C(OC(=O)[C@]56CCC(C)(C)C[C@@H]5C5=CCC7[C@@]8(C)C[C@H](O)[C@H](OC9OC(CO)C(O)C(OC%10OC(CO)C(O)C(O)C%10O)C9O)[C@@](C)(CO)[C@@H]8CC[C@@]7(C)[C@]5(C)CC6)OCC(O)C4O)C(O)C3O)C2O)C(O)C(O)C1O` (some centres not stated), the TGI in the experiment with SN12C renal was 25.2 µM; in the experiment with LOX IMVI melanoma, 35 µM; with UACC-257 melanoma, 35.6 µM; in the experiment on MCF7 breast it was 36.1 µM; in the experiment on M14 melanoma, 26.3 µM; in the experiment on SF-268 CNS it was 39.7 µM. The TGI in the experiment on COLO 205 colon was found to be 18.1 µM; with MDA-MB-231 breast it was 31.2 µM; in the experiment on RXF 393 renal it was 27.9 µM; with MALME-3M melanoma, 30.8 µM; in the experiment on HS 578T breast it was 40.9 µM; in the experiment on PC-3 prostate, 23.9 µM. Moreover, the TGI in the experiment on SR leukemia turned out to be 25.8 µM; in the experiment on NCI-H522 lung it was 31.4 µM; in the experiment on OVCAR-3 ovarian, 29.4 µM.
